Laboratory results from patent US20070244076A1, “Site and Rate Selective Prodrug Formulations of D609 with Antioxidant and Anticancer Activity” (priority 2003, published 2007).

Experiments:
[1] = system: sphingomyelin synthase (SMS); assay: Cellular SMS activity in U937 cells treated with drug; type: cell-based, Human; conditions: for inhibition of SMS activity: 177 μM, 0.5, 1 and 2 h
Experimental: Analysis of sphingomyelin synthase (SMS) activity: U937 cells (2×10^6/ml) were cultured with vehicle (0.5% DMSO) or 177 μM D609 or prodrug 2. After 0.5, 1 and 2 h incubation, the cells were harvested, washed and then homogenized in ice-cold lysis buffer (250 mM sucrose; 5 mM HEPES, pH 7.4; 1 mM phenylmethylsulfonyl fluoride; and 20 μg/ml each of chymostatin, leupeptin, antipain, and pepstatin) by 15 passages through a 27-gauge×0.5-inch needle. The cell lysates were first centrifuged at 1000×g for 10 min at 4° C. to remove all the unbroken cells and nuclei. The resultant supernatants were quantified for protein concentration using the Bio-Rad protein assay reagent (Bio-Rad, Hercules, Calif.) and assayed for SMS activity as follows: aliquots of the cell lysates containing 50 μg protein were preincubated for 10 min at 30° C. in a total volume of 50 μl of incubation buffer (50 mM Tris-HCl, pH 7.4; 25 mM KCl; and 0.5 mM EDTA). The reaction was started by addition of 2 nmol NBD C6-ceramide and 12 nmol PC to give a final volume of 50 μl and incubated for 30 min. The reaction was stopped by addition of 200 μl chloroform/methanol (1:1, v/v); the mixture was vortexed and kept on ice. The chloroform/methanol fraction was isolated, and the lipids were resolved by TLC (silica gel) in chloroform:methanol:15 mM CaCl2 (90:52.5:12) (Luberto and Hannun, 1998; Meng et al., 2004). The formation of NBD-C6-sphingomyelin was quantified by determination of the fluorescent intensity of NBD-C6-sphingomyelin using a phosphoimager. Values for blanks were subtracted from total values of NBD-C6-sphingmyelin to yield the amount of NBD-C6-sphingmyelin produced in each sample.
To validate if inhibition of SMS may mediate D609-induced tumor cell death, the cellular level of SMS activity in U937 cells treated with vehicle or D609 were studied. […] NBD-C6-ceramide and PC were incubated with the cell lysates containing 50 μg proteins for 30 min at 30° C. The formation of NBD-C6-sphingomyelin was analyzed by TLC and quantified by determination of the fluorescent intensity of NBD-C6-sphingomyelin using a phosphoimager. The results, shown in FIGS. 10B-10D, are expressed as percent of the control cultures with vehicle and presented as means±SEM (n=3). […] The levels of ceramide (FIG. 10B) and DAG (FIG. 10C) were analyzed by the DAG kinase assay, normalized to the levels of cellular phospholipid and expressed as pmole/nmole phophate (pi) or the ratio of ceramide and DAG (FIG. 10D). The results represent means±SEM (n=3).

U937 cells [2] = assay: MTT cell viability, U937 cells; type: cell-based, Human; conditions: for LD50: 48 h
Experimental: Cell viability assay: The MTT assay was used to quantify viable U937 cells (Hansen et al., 1989). U937 cells were harvested, washed and resuspended in complete medium at a concentration of 5×10^5 cells per ml. Aliquots (100 μl) of the cell suspension were added to wells of a 96-well microtiter plate with the addition of 100 μl of complete medium (control) or various concentrations of D609 or a D609 prodrug (diluted in complete medium). After 48 h incubation, the plates were centrifuged to remove the supernatants from the culture, and 50 μl of MTT at a concentration of 5 mg/ml in phosphate-buffered saline (PBS) was added to each well. The plates were incubated for 4 h at 37° C. to allow for the formation of a colored formazan. The formazan was solubilized by lysing the cells with 100 μl of lysis buffer containing 20 (w/v) % dodecylsulfate and 50 (v/v) % N,N-dimethyl formamide, pH 4.7. Absorbance of the formazan was measured at 595 nm using a Vmax plate reader (Molecular Devices, Sunnyvale, Calif.). The viability of the cells was expressed as a percent of control calculated by the formula Ad/Ac×100, where Ad and Ac, represent the absorbance of drug-treated and untreated control cells, respectively, and expressed as a percentage of control.
In this study, p-nitrophenyl-phosphorylcholine (pNPP, 40 mM) was incubated with 2 U/ml phospholipase C (Type XI from B. cereus) in the presence or absence of various concentrations of inhibitors for 2 hrs at 37° C. The amount of the cleaved substrate pNPP was quantified by determination of the optical density at 410 nm using an ELISA reader. The results are expressed as percent of vehicle control and presented as means±SEM (n=3) (FIG. 9A). NBD-C6-ceramide and PC were incubated with U937 cell lysates containing 50 μg protein in the presence or absence of various concentrations of inhibitors for 30 min at 30° C. The formation of NBD-C6-sphingomyelin as analyzed by TLC and quantified by determination of the fluorescent intensity of NBD-C6-sphingomyelin using a phosphorimager. The results are expressed as percent of vehicle control (FIG. 9B). […]

U937 cells [3] = assay: U937 apoptosis, sub-G0/1 cells by flow cytometry; type: cell-based, Human; conditions: 177 μM, 24 h
Experimental: Apoptosis Assays: U937 cells (5×10^5/ml) were cultured with vehicle (0.5% DMSO) or 177 μM D609 or prodrug 2. After 24 h incubation, the cells were harvested, washed and then fixed in 70% ethanol at 4° C. for 24 h. They were stained with a PI staining solution (PBS containing PI 50 μg/ml; RNase A 100 U/ml; and 0.1 mM EDTA) for 2 h at room temperature before flow cytometric analysis (10,000 events/sample). The percentage of apoptotic cells was determined by quantification of the sub-G0/1 population using a FACS Caliber (Becton Dickinson, San Jose, Calif.).

[4] = system: Jurkat T-cell leukemia cells; assay: MTT cell viability, Jurkat cells; type: cell-based, human
[5] = system: normal human diploid fibroblasts-WI38 cells; assay: MTT cell viability, WI38 normal fibroblasts; type: cell-based; conditions: for LD50: normal cells

SMILES	inhibition of SMS activity [1]	LD50 (U937 cells [2]) [µM]	apoptosis (sub-G0/1 cells) (U937 cells [3])	LD50 [4] [µM]	LD50 [5] [µM]	IC50 ([1]; U937 cells cultured 2 hrs) [µM]	IC50, SMS activity ([1]; U937 cells cultured 2 hrs) [µg/mL]	U937 cell death / cell viability (U937 cells [2]; 48 hours)	cell viability ([5]; 48 hours)
CCCC(=O)OCSC(=S)OC1CC2CC1C1CCCC21 (centres unmarked) [Prodrug 2, S-methyleneoxybutyryl D609]	significantly greater	56.6	significantly greater reduction in cell viability and increase in the sub-G0/1 cells than D609-treated cells	44.26	333.43				
S=C([S-])OC1CC2CC1C1CCCC21.[K+] (centres unmarked) [Prodrug D609, Tricyclodecan-9-yl-xanthogenate]	time-dependent inhibition of SMS activity	117	capable of inducing apoptosis	63.97	267.51	~90	~23.8	induced significant cell death	relatively resistant
